From patent US20260137701A1, “CHOLESTENOIC ACID (CA) AND A SULFATED DERIVATIVE THEREOF, 3[BETA]-SULFATE-5-CHOLESTENOIC ACID (CA3S), AS ENDOGENOUS EPIGENETIC REGULATORS” (priority 2022, published 2026)

Legend:
HepG-2 cells [1] = assay: RT-qPCR of genes of lipid metabolism and calcium signaling; format: cell-based, human; conditions: concentration and time dependent
Procedure: After culturing HepG-2 cells in DMEM medium with HG for 72 hours followed by treating with 20 μM CA for 0, 3, 6, 12, and 24 hours, genomic DNA from 5×10^7 cells were extracted using QIAamp® DNA Mini Kit (QIAGEN, Hilden, Germany). Each sample, 6 μg, was sent to CD Genomics Co., Ltd (New York, USA) for analysis of WGBS. Total RNA was isolated using the Promega SV total RNA isolation system (Madison, WI, USA) with DNase treatment. Each sample, 2 μg, were sent to CD Genomics Co., Ltd (New York, USA) for analysis of RNA sequencing. The same samples, 2 μg, was used for the first-strand cDNA synthesis as recommended by the manufacturer (Invitrogen, Carlsbad, CA). RT-qPCR was performed using SYBR Green as the indicator on ABI 7500 Fast Real-Time PCR System (Applied Biosystems, Foster City, CA). Amplifications of j-actin or GAPDH were used as internal controls. Relative messenger RNA (mRNA) expression was quantified with the comparative cycle threshold (Ct) method using a sutiable primer set and was expressed as 2-ΔΔCt as described previously.

recombinant DNMT3a = recombinant DNMT3a (Homo sapiens, UniProt Q9Y6K1); assay: DNMT3a enzyme kinetic (activity) assay, 3H-SAM filter; format: biochemical; conditions: read-out: IC50, inhibits DNMT3a activity
recombinant DNMT3a, sequence (Q9Y6K1 whole entry, looked up): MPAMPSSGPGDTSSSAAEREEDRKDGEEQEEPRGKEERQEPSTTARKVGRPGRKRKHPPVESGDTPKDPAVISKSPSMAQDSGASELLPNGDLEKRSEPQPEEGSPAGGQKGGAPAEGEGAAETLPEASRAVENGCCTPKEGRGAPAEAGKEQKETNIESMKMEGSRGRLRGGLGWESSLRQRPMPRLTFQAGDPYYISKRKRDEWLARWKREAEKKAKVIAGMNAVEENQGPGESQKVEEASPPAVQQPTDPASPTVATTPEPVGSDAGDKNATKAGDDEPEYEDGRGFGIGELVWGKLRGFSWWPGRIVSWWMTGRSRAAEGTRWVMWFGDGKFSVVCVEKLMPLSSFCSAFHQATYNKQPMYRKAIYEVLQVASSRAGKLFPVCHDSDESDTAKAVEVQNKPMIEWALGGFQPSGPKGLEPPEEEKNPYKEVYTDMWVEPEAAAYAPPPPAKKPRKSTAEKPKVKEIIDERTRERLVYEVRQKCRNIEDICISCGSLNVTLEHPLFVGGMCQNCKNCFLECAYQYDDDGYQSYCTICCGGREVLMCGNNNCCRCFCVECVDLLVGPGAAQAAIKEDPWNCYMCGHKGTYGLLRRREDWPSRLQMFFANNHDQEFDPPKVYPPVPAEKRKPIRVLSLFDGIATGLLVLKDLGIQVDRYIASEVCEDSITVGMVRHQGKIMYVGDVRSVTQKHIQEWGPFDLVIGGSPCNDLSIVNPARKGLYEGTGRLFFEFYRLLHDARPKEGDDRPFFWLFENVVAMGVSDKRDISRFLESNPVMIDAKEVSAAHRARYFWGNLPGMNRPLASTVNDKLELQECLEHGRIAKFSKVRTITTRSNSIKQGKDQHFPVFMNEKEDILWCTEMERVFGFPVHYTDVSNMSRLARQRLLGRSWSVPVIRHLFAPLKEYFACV
Procedure: The enzyme kinetic studies were carried out by Reaction Biology Company. For the DNMT1 activity assay, the substrate solution, 0.001 mg/ml Poly(dI-dC): Poly(dI-dC) in 50 mM Tris-HCl, pH 7.5, 50 mM NaCl, 5 mM EDTA, 5 mM DTT, 1 mM PMSF, 5% glycerol, 0.01% Brij™35, 1% DMSO was used. For the DNMT3a/3b activity assay, 0.0075 mg/ml Lambda DNA in 50 mM Tris-HCl, pH 7.5, 50 mM NaCl, 5 mM EDTA, 5 mM DTT, 1 mM PMSF, 5% glycerol, 1% DMSO, was used. The indicated DNMT1, DNMT3a and DNMT3b were added to the appropriate substrate solution and gently mixed. Amounts of CA ranging from 5.08E-09 to 0.0001 M in DMSO were added to the reaction mixture by using Acoustic Technology (Echo® 550, LabCyte Inc. Sunnyvale, CA). The mixtures were first incubated for 15 min, then ^3H-SAM was added to the reaction mixture to initiate the reaction, and the mixture was incubated for 60 min at 30° C. Following incubation, the reaction mixture was finally transferred to filter-paper for detection of radioactivity counts.

NAFLD mouse model = assay: western diet-induced NAFLD mice model, health and serum enzymes; format: in vivo; conditions: 10 mg/kg CA injection, two weeks
Source text: The animal studies were approved by the Institutional Animal Care and Use Committee of McGuire Veterans Affairs Medical Center and conducted in accordance with the Declaration of Helsinki, the Guide for the Care and Use of Laboratory Animals, and all applicable regulations. In this study, a western diet-induced nonalcoholic fatty liver disease (NAFLD) mice model was used. To create the model, eight-week-old C57BL/6J female mice were purchased from the Jackson Laboratory and fed a western diet (TD.88137, Envigo) along with high glucose/fructose water (WDSW) containing 23.1 g/L fructose and 18.9 g/L glucose for 12 weeks. After establishing the model, the mice were separated into three groups based on their weight. For the control mice in each group, they received intravenous injection (IV) with vehicle (DMSO). In contrast, the treatment group mice were intravenously injected with 10 mg/kg of CA (dissolved in DMSO) with a total volume of less than 100 μl. During the treatment period, injections were administered every two days. All mice were housed under identical conditions in an aseptic facility with a 12-hour light/12-hour dark cycle and provided with free access to water and food (WDSW). Before scarification, the mice fasted overnight. Blood samples were collected, and the serum enzymatic activities of alkaline phosphatase (ALK), alanine aminotransferase (ALT), and aspartate aminotransferase (AST) were measured in the clinical laboratory at McGuire Veterans Affairs Medical Center.

HepG-2 cells [2] = assay: Untargeted lipidomics analysis; format: cell-based, human
Procedure: HepG-2 cells were cultured in DMEM medium with HG for 72 hours followed by treating with 20 μM CA for 24, 48, and 72 hours. The cells were harvested with 500 μl 1× PBS, and sent to Creative Proteomics Co., Ltd (New York, USA) for untargeted lipidomics analysis. Samples were thawed and 1.5 mL chloroform:methanol (2:1, v/v) added to sample, vortexed for 1 min, and followed by sonication for 30 min, 4° C. Then centrifuge 10 min at 12,000 rpm, 4° C., transfer the lower phase to a new tube, dry under the nitrogen. The dried extract with 200 μl of isopropyl alcohol:methanol (1:1, v/v); add 5 μl LPC (12:0) for internal standard. Finally, centrifuge 10 min at 12,000 rpm, 4° C.; transfer the supernatant for LC-MS analysis. Separation is performed by UltiMate™ 3000 LC combined with Q Exactive™ MS (Thermo) and screened with ESI-MS. The LC system is comprised of ACQUITY UPLC® BEH C18 (100×2.1 mm×1.7 μm) with UltiMate™ 3000 LC. The mobile phase is composed of solvent A (60% ACN+40% H2O+10 mM HCOONH4) and solvent B (10% ACN+90% isopropyl alcohol+10 mM HCOONH4) with a gradient elution (0-10.5 min, 30%-100% B; 10.5 min-12.5 min, 100% B; 12.5-12.51 min, 100%-30% B; 12.51-16.0 min, 30% B). The flow rate of the mobile phase is 0.3-1 mL·min. The column temperature is maintained at 40° C., and the sample manager temperature is set at 4° C. Mass spectrometry parameters in ESI+ and ESI− mode are listed as follows: ESI+: Heater Temp 300° C.; Sheath Gas Flow rate, 45 arb; Aux Gas Flow Rate, 15 arb; Sweep Gas Flow Rate, larb; spray voltage, 3.0 KV; Capillary Temp, 350° C.; S-Lens RF Level, 30%. ESI−: Heater Temp 300° C., Sheath Gas Flow rate, 45 arb; Aux Gas Flow Rate, 15 arb; Sweep Gas Flow Rate, larb; spray voltage, 3.2 KV; Capillary Temp, 350° C.; S-Lens RF Level, 60%.

## CC(CCC[C@@H](C)[C@H]1CC[C@H]2[C@@H]3CC=C4C[C@@H](O)CC[C@]4(C)[C@H]3CC[C@]12C)C(=O)O (stereo partly drawn) [CA, 3β-hydroxy-5-cholestenoic acid]
HepG-2 cells [1]; 0-20 μM CA 6 hours
  levels of mRNA encoding FAS: decreased
  levels of mRNA encoding HMGR: decreased
  levels of mRNA encoding PCSK9: decreased
HepG-2 cells [1]
  expression of CACNA1D: up-regulated
  expression of CACNA1H: up-regulated
  expression of CAMK2B: up-regulated
Recombinant DNMT3a
  IC50: 8.41 µM
NAFLD mouse model
  in vivo toxicity, health of mice: remained in good health
  serum activity of ALK: significant decrease
  serum activity of ALT: significant decrease
HepG-2 cells [2]; 20 μM CA, 48 hours
  average decreased percentage of ChE (cholesterol ester): 47%
  average decreased percentage of DG (Diglycerides): 76%
  average decreased percentage of FA: 65%
  average decreased percentage of MG (Monoglycerides): 53%
  average decreased percentage of TG (Triglycerides): 70%
HepG-2 cells [2]; HG medium 72 hours, then 20 μM CA
  lipid levels (GP, SP, GL, ST, FA): significantly decreased
